# pKd: −log10 of the molar value. Ends that are not written are not given here. Peptide text beside a SMILES is read from it. * marks the point of attachment. Myristoyl = CCCCCCCCCCCCCC(=O)*
# Assays:
# AP2 complex = AP2 complex (Homo sapiens, UniProt O94973+P53680); details: peptide sequence derived from human CD4 di-leucine motif; read-out: affinity for the AP2 complex; cited from earlier work
# rat hind paws = experiment: Hematoxylin & eosin staining, immune cells and gait in incisional pain model; type: in vivo
# Method: (A) Animals were treated as previously stated in the Methods section. However, no behavior was collected, instead, animals were sacrificed via transcardial perfusion, and tissue was collected for staining. (Top) Representative images depicting hematoxylin & eosin staining of rat hind paws in scrambled (n=2) and AP2 inhibitory peptide groups (n=2). Localized immune cells can be observed in the dermis in each condition. (Bottom) 24 hours following incision, there is a rapid increase in the number of immune cells. […] (B) Representative images of incision site in animals that received either the scrambled peptide (top) or AP2 inhibitory peptide (bottom). Black arrows highlight significant granuloma-like structures.
# rats = experiment: Incisional post-operative pain model, thermal sensitivity; type: in vivo, rat; details: for tau (τ), rate of recovery following incision: exponential decay fit, time in days
# Method: Incisional post-operative pain model: To model post-operative pain, an established rat incisional model was used. In short, male and female rats were randomized into either experimental or control groups. On the day of surgery, the animals were anesthetized and placed into a prone position. Once the animal was under a surgical plane of anesthesia, a 200 μL intraplantar injection of 100 μM (31.54 μg total) lipidated peptidomimetic was made into the ipsilateral hind paw. Afterwards, the animals were returned to their home cage and allowed to recover. On the same day, 6 hours after the pre-injection, the animals were anaesthetized, placed into a prone position, and prepared for incision injury. The ipsilateral hind paw was sterilized using successive swabs of chlorohexidine, 70% ethanol, and iodine. Then, using a size 10 scalpel, a 1 cm long incision was made into the plantar surface of the ipsilateral hind paw. Short, yet firm, strokes were used to make incisions through the skin, fascia, and muscle of the hind paw. Following incision, two 50 μL injections, containing 100 μM (7.885 μg per injection) of the lipidated peptidomimetic, were made into each “half” of the incised plantar muscle. Following injection into the muscle, the skin was sutured using 6/0 silk sutures (Ethicon) in a continuous manner to discourage removal of sutures. Upon conclusion of suturing, four 25 μL injections containing 100 μM (3.9425 μg per injection) of the lipidated peptidomimetic, were made into a “quadrant” adjacent to the incision. Finally, the animals were returned to their home cage and allowed to recover for at least 16 hours.
# (§1) Thermal Sensitivity Testing: Prior to testing, animals were allowed to habituate to the testing room for 1 hour on each day. Animals were placed on an enclosed elevated frosted glass platform (Ugo Baseline) and allowed 30 minutes for habituation. Once exploratory behavior ceased, an automatic Hargreaves apparatus was maneuvered (Ugo Basile) underneath the hind paw(s) of the animals. Paw withdrawal latency was calculated as the average of four trials per hind limb. Each trial was followed by a 5-minute latency period to allow adequate recovery time between trials.
# C57BL/6 mice [1] = experiment: Formalin acute inflammatory pain assay; type: in vivo, mouse
# Method: (§2) Formalin Assay. Male and female C57BL/6 mice were randomly assigned to either control or experimental groups. Animals were habituated to the formalin testing chamber for 30 minutes or until exploratory behavior ceased the day of experimentation. Following the habituation period, animals were removed from the chamber and given an intraplantar injection of 5% formalin into the ipsilateral hind paw, then immediately placed back into the testing chamber and recorded. Animals were recorded for at least 90 minutes after formalin injection using Active WebCam software. Videos were subsequently scored for number of paw licks, number of paw lifts, and number of full body flinches. All behaviors were scored for a full minute, every five minutes, for 90 minutes of video recording.
# as §2, with “Assay:” for “Assay.”, “Animals were habituated to the formalin testing chamber for 30 minutes or until exploratory behavior ceased the day of experimentation.” left out, “All behaviors were scored for a full minute, every five minutes, for 90 minutes of video recording.” left out
# C57BL/6 mice [2] = experiment: CFA-induced inflammatory pain, thermal sensitivity (Hargreaves); type: in vivo, mouse; details: for tau (τ), time constant of thermal sensitivity recovery: time in days
# Method: Freund's Complete Adjuvant Chronic Pain Model. C57BL/6 mice were anesthetized (induction: 3%, maintenance: 2%) and placed in a prone position. After the animals were under a surgical plane of anesthesia, denoted by a loss of reaction to both a tail and hind paw pinch, they received a 20 μL injection of Imject™ Freund's Complete Adjuvant (FCA; Thermo Fisher Scientific) and allowed to recover. Behavior testing resumed 24 hours post FCA injection. Each cohort of animals received FCA from previously unopened, vacuum sealed glass ampules to minimize variations between groups.
# as §1, with “Hargreaves Assay.” for “Thermal Sensitivity Testing: Prior to testing, animals were allowed to habituate to the testing room for 1 hour on each day.”, “Baseline)” for “Basile)”
# Complete Freund's Adjuvant Induced Inflammatory Pain: Male and female C57BL/6 mice were randomized into experimental and control groups. In order to maintain consistency in regards to site of injection, mice were anesthetized and injected with a 32-gauge disposable syringe filled with 20 μL of Imject™ Complete Freund's Adjuvant (Thermo Fisher Scientific) into the plantar surface of the right hind paw and allowed to recover. Behavior testing resumed 24 hours post-CFA injection at which point the animals received a 20 μL intraplantar injection of 100 μM (3.154 μg total) lipidated peptidomimetic immediately after the conclusion of day 1 behavioral testing. In order to minimize experimental error between groups, each group of animals received CFA from previously unopened, vacuum-sealed glass ampules ensuring CFA of identical specific activity.
# as §1
# [3] = peptide 100 μM 6 h before and immediately after plantar incision
# [4] = single i.pl. peptide injection (100 μM, 20 μL) 24 h after CFA, n=8
# AP2 complex, sequence (O94973 1-621 limits assumed): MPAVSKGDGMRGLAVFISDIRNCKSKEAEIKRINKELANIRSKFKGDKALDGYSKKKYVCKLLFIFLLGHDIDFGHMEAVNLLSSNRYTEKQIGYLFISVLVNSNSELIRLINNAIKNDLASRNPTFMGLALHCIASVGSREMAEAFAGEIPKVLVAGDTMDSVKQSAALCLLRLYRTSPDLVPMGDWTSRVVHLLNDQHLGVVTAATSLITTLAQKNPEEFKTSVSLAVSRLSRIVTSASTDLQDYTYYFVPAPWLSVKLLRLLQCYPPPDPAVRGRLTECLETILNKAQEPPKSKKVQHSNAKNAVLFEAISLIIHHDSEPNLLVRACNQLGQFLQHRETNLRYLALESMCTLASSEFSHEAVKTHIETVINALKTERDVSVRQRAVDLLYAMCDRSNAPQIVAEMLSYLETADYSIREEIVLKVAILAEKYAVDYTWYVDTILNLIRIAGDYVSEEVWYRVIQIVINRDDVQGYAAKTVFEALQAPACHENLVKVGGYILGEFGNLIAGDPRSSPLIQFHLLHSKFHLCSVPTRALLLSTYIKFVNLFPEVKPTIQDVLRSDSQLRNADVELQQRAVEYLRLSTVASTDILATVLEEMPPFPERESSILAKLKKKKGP
# AP2 complex, sequence (P53680 whole entry): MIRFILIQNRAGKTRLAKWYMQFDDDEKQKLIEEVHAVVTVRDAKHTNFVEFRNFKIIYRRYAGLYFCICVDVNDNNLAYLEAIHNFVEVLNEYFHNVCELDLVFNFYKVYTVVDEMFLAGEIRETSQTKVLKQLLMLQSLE
# AP2 complex, sequence (P63010 1-591 partner limits assumed): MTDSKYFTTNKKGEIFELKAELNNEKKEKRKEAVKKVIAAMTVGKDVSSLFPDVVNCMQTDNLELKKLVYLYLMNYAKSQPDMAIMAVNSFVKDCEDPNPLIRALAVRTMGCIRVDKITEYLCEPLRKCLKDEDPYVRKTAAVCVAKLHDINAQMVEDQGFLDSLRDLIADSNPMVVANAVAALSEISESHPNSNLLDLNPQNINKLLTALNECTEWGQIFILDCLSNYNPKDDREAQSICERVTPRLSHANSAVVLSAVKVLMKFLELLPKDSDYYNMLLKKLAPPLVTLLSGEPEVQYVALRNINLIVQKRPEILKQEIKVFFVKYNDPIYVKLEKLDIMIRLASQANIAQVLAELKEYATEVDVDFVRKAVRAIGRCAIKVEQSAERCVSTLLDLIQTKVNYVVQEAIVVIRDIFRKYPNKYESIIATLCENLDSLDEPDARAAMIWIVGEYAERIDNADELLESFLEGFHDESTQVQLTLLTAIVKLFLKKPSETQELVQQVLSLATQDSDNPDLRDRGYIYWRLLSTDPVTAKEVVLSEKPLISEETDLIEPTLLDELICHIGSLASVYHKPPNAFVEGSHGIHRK
# AP2 complex, sequence (Q96CW1 whole entry partner): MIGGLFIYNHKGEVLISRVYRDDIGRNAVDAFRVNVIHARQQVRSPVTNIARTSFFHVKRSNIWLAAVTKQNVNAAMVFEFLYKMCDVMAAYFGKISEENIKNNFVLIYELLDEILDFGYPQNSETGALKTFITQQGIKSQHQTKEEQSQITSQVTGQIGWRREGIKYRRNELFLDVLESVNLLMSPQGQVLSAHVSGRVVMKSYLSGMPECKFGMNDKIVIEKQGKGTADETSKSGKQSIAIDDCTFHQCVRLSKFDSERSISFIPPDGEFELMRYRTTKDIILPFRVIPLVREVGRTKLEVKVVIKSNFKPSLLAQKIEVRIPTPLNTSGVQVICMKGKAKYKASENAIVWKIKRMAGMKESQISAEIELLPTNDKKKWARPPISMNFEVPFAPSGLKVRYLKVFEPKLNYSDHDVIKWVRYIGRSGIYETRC
compound,measurement,setting,value
"CCCCCCCCCCCCCC(=O)N[C@@H](CCCNC(=N)N)C(=O)N[C@@H](CCSC)C(=O)N[C@@H](CO)C(=O)N[C@@H](CCC(=O)O)C(=O)N[C@H](C(=O)N[C@@H](CCCCN)C(=O)N[C@@H](CCCNC(=N)N)C(=O)N[C@@H](CC(C)C)C(=O)N[C@@H](CC(C)C)C(=O)N[C@@H](CO)C(=O)N[C@@H](CCC(=O)O)C(=O)O)[C@@H](C)CC [AP2 inhibitor peptide, RMSEIKRLLSE (SEQ ID NO: 1)] (Myristoyl-RMSEIKRLLSE-OH; N-terminus and C-terminus assumed)",pKd,AP2 complex,6.19
same,granuloma-like clustering of immune cells,"rat hind paws; 24 hours following incision, n=2",dense clustering of immune cells
same,changes in gait,rat hind paws; after injection of the peptide,did not potentiate any observable changes
IERLSEMSLRK (SEQ ID NO: 6) [scrambled peptide],"tau (τ), rate of recovery following incision",rats; all rats,9.09
same,"tau (τ), rate of recovery following incision",rats; female rats,11.72
same,"tau (τ), rate of recovery following incision",rats; male rats,7.46
same,paw withdrawal latency day-1,rats; [3],5.7 ± 0.4 s
same,paw withdrawal latency day-2,rats; [3],6.4 ± 0.4 s
same,paw withdrawal latency day-3,rats; [3],7.4 ± 0.5 s
same,paw withdrawal latency day-4,rats; [3],7.4 ± 0.5 s
same,paw withdrawal latency day-5,rats; [3],8.3 ± 0.6 s
same,paw withdrawal latency day-6,rats; [3],8.6 ± 0.5 s
same,paw withdrawal latency day-7,rats; [3],11.7 ± 0.6 s
same,paw withdrawal latency day-8,rats; [3],11.4 ± 0.4 s
same,paw withdrawal latency day-9,rats; [3],12.0 ± 0.6 s
same,cumulative phase 2 paw licking behavior,"C57BL/6 mice [1]; single i.pl. peptide injection (100 μM, 20 μL) 24 h before 5% formalin, n=6",184±22
same,paw withdrawal latency day-1,"C57BL/6 mice [2]; 24 h after CFA, before the single i.pl. peptide injection, n=8",2.4 ± 0.3 s
same,"tau (τ), time constant of thermal sensitivity recovery","C57BL/6 mice [2]; all animals, first order exponential decay fit",4.82
same,"tau (τ), time constant of thermal sensitivity recovery","C57BL/6 mice [2]; female mice, exponential decay fit",3.23
same,"tau (τ), time constant of thermal sensitivity recovery","C57BL/6 mice [2]; male mice, exponential decay fit",6.45
same,paw withdrawal latency day-2,C57BL/6 mice [2]; [4],3.8 ± 0.5 s
same,paw withdrawal latency day-3,C57BL/6 mice [2]; [4],3.8 ± 0.4 s
same,paw withdrawal latency day-5,C57BL/6 mice [2]; [4],5.5 ± 0.6 s
same,paw withdrawal latency day-9,C57BL/6 mice [2]; [4],7.0 ± 0.8 s
"RASDKQTLLPNQ (SEQ ID NO: 5) (also: phosphorylated, site not given here) [P4, di-leucine based peptide, parent protein CD3, phosphorylated]",nocifensive (licking and lifting) behaviors,"C57BL/6 mice [1]; di-leucine peptide analogs, 5% formalin, n=3 per analog",significant decreases

# Reference: patent publication US20240294571A1, “ANALGESIC AND ANESTHETIC PEPTIDES AND OTHER AGENTS” (The Research Foundation for The State University of New York, priority 2019, published 2024)
